Patent US20180250351A1 (priority 2015, published 2018)
pIC50: −log10 of the molar value. Read-outs that look alike come from different tables or passages of the source.

Experiments:
[1] = human, in vivo
[2] = curcumin dose 100 mg/kg (NPs) or 250 mg/kg (others); cited from earlier work
[3] = target: T1, UDP-glucose dehydrogenase (UDP-GDH) (Homo sapiens, UniProt O60701); experiment: Spectrophotometric test of inhibition of UDP-glucose dehydrogenase; assay type: biochemical; details: for type of inhibition of UDP-GDH: in relation to enzyme/substrate and cofactor NAD+; for pIC50: 37° C., 340 nm
T1 sequence (O60701 1-494): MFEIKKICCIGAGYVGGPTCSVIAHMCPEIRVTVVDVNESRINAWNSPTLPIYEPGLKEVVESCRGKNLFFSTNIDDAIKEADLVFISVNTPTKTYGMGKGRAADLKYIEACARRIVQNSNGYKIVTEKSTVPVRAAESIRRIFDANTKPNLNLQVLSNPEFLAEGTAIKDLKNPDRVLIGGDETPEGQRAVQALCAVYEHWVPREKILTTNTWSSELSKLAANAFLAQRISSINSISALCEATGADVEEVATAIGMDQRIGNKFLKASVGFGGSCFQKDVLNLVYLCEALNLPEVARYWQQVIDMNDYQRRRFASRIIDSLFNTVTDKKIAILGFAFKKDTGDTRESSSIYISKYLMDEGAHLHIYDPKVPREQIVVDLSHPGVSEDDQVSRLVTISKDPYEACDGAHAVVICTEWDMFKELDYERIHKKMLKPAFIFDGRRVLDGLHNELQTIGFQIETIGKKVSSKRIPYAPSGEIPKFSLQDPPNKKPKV
Procedure: The UDP-GDH enzyme catalyses the oxidation of the UDP-glucose using the NAD+ as the oxidant agent, according to the following formula: […]
UDP-glucose+2NAD++H2O→UDP-glucuronic acid+2NADH+2H+
For the spectrophotometric evaluation of the enzymatic activity the following reactive mix has been used:
The test has been done at 37° C. and monitored at 340 nm for 20 minutes.
The algae has thus been suspended in different concentrations (10-50-100 mg/ml) in distilled water on the one hand and in 100% ethanol on the other; then homogenized and afterwards centrifuged at 5000 rpm for 10 minutes. We have then checked through spectrophotometry the presence in the two extracts of the relevant components, verifying the presence of phycocyanins at 620 nm for the water extract and of carotenoids at 400 nm and chlorophyll at 664 nm for the ethanol extract.

[4] = animals; cited from earlier work
[5] = humans; absolute terms, curcumin alone at the non detectable level; cited from earlier work

For `COc1cc(/C=C/C(=O)CC(=O)/C=C/c2ccc(O)c(OC)c2)ccc1O` [curcumin alone, curcumin], the “time of absorption peak after ingestion” value [1] is listed as “approximately 15 min”, the “time of peak after ingestion” value [1] is listed as “approximately 1 hour” and the AUC [2] is listed as 0.312 µg·h/mL. The Cmax [2] was 0.0903 µg/mL.

In the case of phycocyanin, the “type of inhibition of UDP-GDH” value [3] was “mixed type” and the pIC50 ([3]; purified molecule) was 5.62.

In the case of `O=C(/C=C/C=C/c1ccc2c(c1)OCO2)N1CCCCC1` [Piperine, piperine], the “plasma concentration increase of curcumin” value [4] is given as 154% and the “plasma concentration increase of curcumin” value [5] is given as 2000%.

For phycocyanobilin, the “type of inhibition of UDP-GDH” value [3] was “directly competitive” and the pIC50 ([3]; purified pigment) was 8.57.
